Source: PubChem BioAssay AID743396 (Broad Institute, 2014)
Activity calls are given as the source filed them.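 Rule for the calls: active = fitted curve reaches a 40% rise in fluorescent cells at or below the top valid dose; inactive = opposite-direction effect, or the rest.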

Assay: compound fluorescence in GFP channel, mTEFS cells – imaging, mTEFS fibroblasts, cherry-pick, artefact control for X-chromosome reactivation project, dose response (AID 743396);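 note: raw share of Hoechst-counted cells scored GFP positive without control normalization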
Details: mTEFS fibroblasts autofluorescence, GFP-channel imaging, 3 days; at 6.8 µM (top of the series); cells pretreated with 5-aza-dC
With `CCN1/C(=C/c2ccc3cc(C)ccc3[n+]2CC)Sc2cc(C)c(C)cc21` the % fluorescent cells increase was 27.9% (inactive).

Same assay, conditions: mTEFS fibroblasts autofluorescence, GFP-channel imaging, 3 days; at 19.5 µM (top of the series)
In the case of `C[n+]1c(-c2ccccc2)c2cc(N)ccc2c2ccc(N)cc21`, the % fluorescent cells increase is reported as 0.212% (inactive).

Same assay, conditions: mTEFS fibroblasts autofluorescence, GFP-channel imaging, 3 days; at 19.5 µM (top of the series); cells pretreated with 5-aza-dC
With `COc1ccc(N(CC(=O)Nc2nccs2)S(=O)(=O)c2c(C)[nH]c(=O)[nH]c2=O)cc1` the % fluorescent cells increase was 0% (inactive).
For `O=C(NNC(=O)c1ccccc1Cl)c1ccccc1Cl`, the % fluorescent cells increase was 0.057% (inactive).
In the case of `Cc1ccc(S(=O)(=O)Nc2cccc3c2O[C@H](CN(C)C(=O)Nc2cccc4ccccc24)[C@H](C)CN([C@H](C)CO)C3=O)cc1`, the % fluorescent cells increase is reported as 0.048% (inactive).
In the case of `C(CCCN1CCCCC1)CCN1CCCCC1`, the % fluorescent cells increase is reported as 0.016% (inactive).
In the case of `NNc1nc2c(-c3ccc(F)cc3)nnn2c2ccccc12`, the % fluorescent cells increase is reported as 0.008% (inactive).
With `COc1ccccc1-c1ccc(/C=N/O)o1` the % fluorescent cells increase was 0% (inactive).
For `Cc1ccccc1NC(=O)c1c(C)[nH]c(=S)c(C#N)c1-c1ccc(Cl)cc1`, the % fluorescent cells increase was 0.031% (inactive).
With `CCCCn1nnnc1C(c1ccccc1)N1CCN(c2ccc(C)cc2)CC1` (stereo unspecified) the % fluorescent cells increase was -0.003% (inactive).
For `C[C@H](NC(=O)C[C@H]1CC[C@@H](NC(=O)Cc2ccccn2)[C@@H](CO)O1)c1ccccc1`, the % fluorescent cells increase was 0.008% (inactive).
With `CC[C@]12c3[nH]c4cc(CCC(=O)N(C)C)ccc4c3CCN1C(=O)[C@@H](CC(=O)NCCC1=CCCCC1)C[C@@H]2C(=O)N1CCN(C(=O)c2ccco2)CC1` the % fluorescent cells increase was 0.051% (inactive).
For `ClC1CCCCC1n1nnc2ccccc21` (stereo unspecified), the % fluorescent cells increase was 0.006% (inactive).
For `F[B-](F)(F)c1cnc2ccccc2c1`, the % fluorescent cells increase was 0.137% (inactive).
With `CCOc1ccc(C(=O)c2cc([N+](=O)[O-])ccc2N2CCOCC2)cc1` the % fluorescent cells increase was 0% (inactive).
For `CCOC(=O)Nc1ccc2nc(-c3cscn3)[nH]c2c1`, the % fluorescent cells increase was 0.274% (inactive).
With `O=c1c(Cl)c(Cl)cnn1Cc1nnc(-c2ccccc2Br)o1` the % fluorescent cells increase was -0.006% (inactive).
In the case of `C[C@H](CO)N1C[C@H](C)[C@H](CN(C)Cc2ccccc2)Oc2ccc(NS(C)(=O)=O)cc2C1=O`, the % fluorescent cells increase is reported as 0.123% (inactive).
In the case of `CCOC(=O)C1CCN(C(=O)c2ccc(NS(=O)(=O)c3ccc(F)cc3C)cc2)CC1`, the % fluorescent cells increase is reported as 0% (inactive).
For `O=C(Nc1c(F)cccc1F)C(c1ccccc1)c1ccccc1`, the % fluorescent cells increase was 0.034% (inactive).
For `Cc1ccc(NC(=O)c2cc(N3C(=O)C=CC3=O)ccc2N2CCOCC2)cc1Cl`, the % fluorescent cells increase was -0.004% (inactive).
With `COc1ccc(-c2ccc(C3[C@@H]4CN(S(=O)(=O)c5ccccc5C)C[C@H]3N4)cc2)cc1` (stereo partly specified) the % fluorescent cells increase was 0% (inactive).
For `O=S(=O)(Nc1cc(Sc2cccc3cccnc23)c(O)c2ccccc12)c1ccccc1`, the % fluorescent cells increase was -0.003% (inactive).
In the case of `CCn1c(Cl)c(C=O)s/c1=N\S(=O)(=O)c1ccccc1`, the % fluorescent cells increase is reported as 0% (inactive).
In the case of `Cc1ccc(Nc2nc(N)nc(COC(=O)C3=COCCO3)n2)cc1`, the % fluorescent cells increase is reported as -0.007% (inactive).
In the case of `Nc1ccccc1Sc1ccc(C(F)(F)F)cc1[N+](=O)[O-]`, the % fluorescent cells increase is reported as 0% (inactive).
For `O=C(NC1=NN(c2ccccc2)CC1)Nc1ccccc1F`, the % fluorescent cells increase was -0.002% (inactive).
In the case of `C[C@@H]1CN([C@H](C)CO)C(=O)c2cc(NC(=O)Nc3ccc4c(c3)OCO4)ccc2O[C@@H](C)CCCCO[C@@H]1CN(C)C(=O)Cc1ccccc1`, the % fluorescent cells increase is reported as 0.027% (inactive).
For `COc1ccc(-c2ccc(C#N)c(SCC(=O)NCc3ccco3)n2)cc1OC`, the % fluorescent cells increase was 0% (inactive).
In the case of `CC(C)(C)N(Cc1ccccc1)C(=O)COC(=O)c1ccc(N2CCCC2=O)cc1`, the % fluorescent cells increase is reported as -0.007% (inactive).
With `COc1cc(/C=C/C(=O)c2ccc([N+](=O)[O-])o2)ccc1O` the % fluorescent cells increase was 5.15% (inactive).
For `COc1ccc(S(=O)(=O)N(C)C[C@H]2OCCCC[C@@H](C)Oc3ccc(NC(=O)NC(C)C)cc3C(=O)N([C@@H](C)CO)C[C@H]2C)cc1`, the % fluorescent cells increase was 0.53% (inactive).
With `O=C(O)/C=C/C(=O)Nc1ccc(-n2nccc2C(F)(F)F)cc1` the % fluorescent cells increase was 1.85% (inactive).
In the case of `CC=Cc1ccc2n(c1=O)C[C@@H]1[C@@H](CO)[C@H](C(=O)NCCCN(C)C)[C@H]2N1C(=O)c1ccccc1F` (mixture of isomers), the % fluorescent cells increase is reported as 0.025% (inactive).
In the case of `Cc1ccc(-c2csc(NC(=O)c3cccc([N+](=O)[O-])c3C(=O)O)n2)cc1`, the % fluorescent cells increase is reported as 0% (inactive).
With `CC(C)c1ccc(CN2CCN(C(=O)CSc3nnnn3C3CC3)CC2)cc1` the % fluorescent cells increase was 0.042% (inactive).
With `Cc1cccc(OCC(=O)N(C)c2c(N)n(Cc3ccccc3)c(=O)[nH]c2=O)c1C` the % fluorescent cells increase was 0.02% (inactive).
For `O=C(N/N=C/c1ccc([N+](=O)[O-])o1)c1cc2ccccc2o1`, the % fluorescent cells increase was 1.73% (inactive).
With `CC(C)N1C(=O)C(=O)N(CC(=O)N2CCc3ccccc32)C1=O` the % fluorescent cells increase was 0.029% (inactive).
In the case of `CC1CC(C)CN(C(=O)C(C)N2CCN(S(=O)(=O)c3ccccc3F)CC2)C1` (stereo unspecified), the % fluorescent cells increase is reported as 0.338% (inactive).
In the case of `NS(=O)(=O)c1cccc(NC(=O)COC(=O)Cc2ccc(S(=O)(=O)N3CCOCC3)s2)c1`, the % fluorescent cells increase is reported as 0% (inactive).
For `Cc1[nH]c2ccc(Br)cc2c(=O)c1CN1CCCCCC1`, the % fluorescent cells increase was 0% (inactive).
With `CCC(C(=O)Nc1cc(OC)c(NC(=O)c2ccccc2)cc1OC)c1ccccc1` (stereo unspecified) the % fluorescent cells increase was 0.022% (inactive).
In the case of `Cc1ccccc1NC(=O)CN1C(=O)S/C(=C\c2ccc(-c3cc(C(=O)O)ccc3C)o2)C1=O`, the % fluorescent cells increase is reported as 0% (inactive).
With `COc1cccc(CNC(=O)c2cc(S(=O)(=O)N3CCCC3)cn2C)c1` the % fluorescent cells increase was 0% (inactive).
In the case of `CCOC(=O)C1(Cc2ccccc2C)CCCN(C(=O)CSC)C1` (stereo unspecified), the % fluorescent cells increase is reported as 0% (inactive).
For `C/C=C/c1ccc(C2[C@H]3CNC[C@@H]2N3Cc2cc(-c3ccccc3)on2)cc1` (stereo partly specified), the % fluorescent cells increase was -0.166% (inactive).
With `Cc1ccc(C(=O)Cn2cncn2)cc1` the % fluorescent cells increase was -0.006% (inactive).
In the case of `NC(=S)Nc1ccc(Cl)cc1Cl`, the % fluorescent cells increase is reported as 0.009% (inactive).
With `CCc1ccc(N2CC(C(=O)Nc3cc(C)on3)CC2=O)cc1` (stereo unspecified) the % fluorescent cells increase was 0.015% (inactive).
In the case of `CC(=O)c1ccc(NS(=O)(=O)c2ccc(N/C=C/C(=O)c3ccc(F)cc3)cc2)cc1`, the % fluorescent cells increase is reported as 0% (inactive).
With `CCOC(=O)N1CCN(Cc2cc(Cl)c3cccnc3c2O)CC1` the % fluorescent cells increase was 0% (inactive).
In the case of `CC(C)C#Cc1ccc([C@@H]2[C@@H](CO)N3C(=O)CN(C(=O)c4ccc5c(c4)OCO5)C[C@H]23)cc1`, the % fluorescent cells increase is reported as -0.166% (inactive).
For `CC(C)(C)C1CCNC(=O)CC1` (stereo unspecified), the % fluorescent cells increase was -0.007% (inactive).
With `Cc1ccc(S(=O)(=O)N2CCN(C(=O)COC(=O)c3ccccc3OC(F)F)CC2)c(C)c1` the % fluorescent cells increase was 0% (inactive).
With `CN(C)S(=O)(=O)c1cccc(C(=O)NCC2(N3CCOCC3)CCCCC2)c1` the % fluorescent cells increase was 0.019% (inactive).
With `CCOC(=O)c1c(C)[nH]c(N=Nc2ccc(OC)cc2)c1C` the % fluorescent cells increase was 0.028% (inactive).
For `CCC(C)c1nc2ccsc2c(N2CCOC2=O)c1-c1ccccc1` (stereo unspecified), the % fluorescent cells increase was -0.011% (inactive).
For `Cc1nnc(SCc2cc(=O)oc3ccc4ccccc4c23)n1Cc1ccccc1`, the % fluorescent cells increase was 0% (inactive).
With `CC(=O)c1ccc(NC(=O)COC(=O)CCc2ccc(S(=O)(=O)N3CCOCC3)cc2)cc1` the % fluorescent cells increase was 0.108% (inactive).
In the case of `CCOc1ccc(CCN2C(=S)N([C@@H](Cc3ccccc3)CN3CCC[C@@H]3CN3C(=S)NC[C@@H]3CC(C)C)C[C@@H]2Cc2ccccc2)cc1`, the % fluorescent cells increase is reported as 0.019% (inactive).
With `Cc1ccc(C)c(CSC2=NN3CCCC(=O)N=C3S2)c1` the % fluorescent cells increase was -0.006% (inactive).
With `Cc1cc(C(=O)NCc2cc(F)cc3c2OCOC3)nn1C` the % fluorescent cells increase was -0.003% (inactive).
For `COc1ccccc1NC(=O)N[C@H]1C=C[C@@H](CC(=O)N[C@@H](C)c2ccccc2)O[C@@H]1CO`, the % fluorescent cells increase was 0.342% (inactive).
In the case of `COc1ccc(Cc2c(O)nc(SCC(=O)NC34CC5CC(CC(C5)C3)C4)[nH]c2=O)cc1`, the % fluorescent cells increase is reported as 0.014% (inactive).
With `CCOC(=O)Nc1cc2c(c(N)n1)N=C(c1ccccc1)CN2` the % fluorescent cells increase was 0.925% (inactive).
For `O=C(Nc1cccc(S(=O)(=O)NC2=NCCC2)c1)C1CC(=O)N(c2ccc3c(c2)OCCO3)C1` (stereo unspecified), the % fluorescent cells increase was -0.007% (inactive).
With `CC(NC(=O)c1ccccc1)C(=O)N/N=C/c1ccccc1` (stereo unspecified) the % fluorescent cells increase was 0% (inactive).
With `Cc1ccc(S(=O)(=O)c2ccc([N+](=O)[O-])cn2)cc1` the % fluorescent cells increase was 0% (inactive).
With `O=C(c1ccc(Br)cc1)c1cc([N+](=O)[O-])ccc1N1CCOCC1` the % fluorescent cells increase was 4.03% (inactive).
In the case of `Cc1ccc(-c2ccc3c(c2)O[C@@H](CN(C)Cc2ccncc2)[C@@H](C)CN([C@@H](C)CO)S3(=O)=O)cc1`, the % fluorescent cells increase is reported as 0.037% (inactive).
In the case of `COc1cc(/C=C/c2ccc3cccc(O)c3n2)ccc1O`, the % fluorescent cells increase is reported as 0% (inactive).
With `COc1ccc(Nc2nc(N)c(C(=O)c3ccc(F)cc3)s2)cc1` the % fluorescent cells increase was 0% (inactive).
In the case of `CN(Cc1nc(CCc2ccccc2)no1)Cc1cccs1`, the % fluorescent cells increase is reported as 0.295% (inactive).
In the case of `O=C(Nc1ccccc1N1CCCCC1)c1cnccn1`, the % fluorescent cells increase is reported as 0.039% (inactive).
In the case of `CNc1ncnc(Sc2ccc(Cl)cc2)c1[N+](=O)[O-]`, the % fluorescent cells increase is reported as 0% (inactive).
With `O=C1N(c2ccccc2)C[C@@H]2C[C@@H](c3cc4ccccc4o3)N3CCC[C@@]123` the % fluorescent cells increase was -0.007% (inactive).
For `O=C1c2ccc3c4c(ccc(c24)C(=O)N1c1cccc(O)c1)C(=O)N(c1cccc(O)c1)C3=O`, the % fluorescent cells increase was -0.003% (inactive).
In the case of `Cc1ccc(Cn2ccsc2=NC(=O)CCl)cc1`, the % fluorescent cells increase is reported as 0% (inactive).
For `COc1cccc(NC(=O)N(C)C[C@@H]2Oc3cc(Br)ccc3S(=O)(=O)N([C@@H](C)CO)C[C@H]2C)c1`, the % fluorescent cells increase was 0.017% (inactive).

Same assay, conditions: mTEFS fibroblasts autofluorescence, GFP-channel imaging, 3 days; at 21 µM (top of the series); cells pretreated with 5-aza-dC
For `Cc1cccc(CN(C)C[C@@H]2Oc3ncc(C#Cc4ccccc4)cc3C(=O)N([C@H](C)CO)C[C@@H]2C)c1`, the % fluorescent cells increase was 0% (inactive).
